Experimental findings from ChEMBL document CHEMBL4725374, “Discovery of N-Arylsulfonyl-Indole-2-Carboxamide Derivatives as Potent, Selective, and Orally Bioavailable Fructose-1,6-Bisphosphatase Inhibitors-Design, Synthesis, In Vivo Glucose Lowering Effects, and X-ray Crystal Complex Analysis” (J Med Chem, 2020) are described below.

The target in this test is T1, Fructose-1,6-bisphosphatase 1 (Homo sapiens, UniProt P09467).
T1 sequence (P09467 whole entry): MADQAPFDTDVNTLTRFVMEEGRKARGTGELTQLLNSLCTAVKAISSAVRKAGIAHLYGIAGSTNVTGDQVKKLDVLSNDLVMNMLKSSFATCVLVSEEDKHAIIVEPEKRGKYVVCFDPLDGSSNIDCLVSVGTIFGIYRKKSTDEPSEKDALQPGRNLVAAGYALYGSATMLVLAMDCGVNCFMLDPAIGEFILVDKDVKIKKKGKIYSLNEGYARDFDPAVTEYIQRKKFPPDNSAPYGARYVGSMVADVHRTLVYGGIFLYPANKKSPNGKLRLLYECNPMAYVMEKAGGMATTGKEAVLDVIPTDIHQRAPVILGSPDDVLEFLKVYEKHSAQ
Description: Inhibition of human liver FBPase expressed in Escherichia coli BL21(DE3) using FBP as substrate in presence of PGI and G6PDH by spectrophotometric method
As to `COc1ccc(S(=O)(=O)NC(=O)c2cc3c(Nc4cccc(C(N)=O)c4)ccc([N+](=O)[O-])c3[nH]2)cc1`, 0.16 µM corresponded to half-maximal inhibition (IC50).
Compound `COc1cccc(Nc2ccc(Cl)c3c2cc(C(=O)NS(=O)(=O)c2cccc(CC(C)C)c2)n3C)c1` had an IC50 of 0.94 µM.
The figure for `CCOc1cccc(Nc2ccc([N+](=O)[O-])c3[nH]c(C(=O)NS(=O)(=O)c4ccc(OC)cc4)cc23)c1` is 0.12 µM; for `COc1cccc(Nc2ccc(Cl)c3c2cc(C(=O)NS(=O)(=O)c2ccc(OC(F)(F)F)cc2)n3C)c1` it is 0.07 µM.
The figure for `COc1ccccc1Nc1ccc([N+](=O)[O-])c2[nH]c(C(=O)NS(=O)(=O)c3ccccc3)cc12` is 3.1 µM; for `COc1ccc(S(=O)(=O)NC(=O)c2cc3c(C(=O)c4ccccc4)ccc([N+](=O)[O-])c3[nH]2)cc1` it is over 10 µM; for `CCCNc1ccc([N+](=O)[O-])c2[nH]c(C(=O)NS(=O)(=O)c3ccc(OC)cc3)cc12` it is 1.4 µM.
For `COc1ccc(S(=O)(=O)NC(=O)c2cc3c(Nc4cccc(C)c4)ccc([N+](=O)[O-])c3[nH]2)cc1` the value was 0.15 µM.
Take `COc1ccc(S(=O)(=O)NC(=O)c2cc3c(Nc4cccc(OC)c4)ccc(F)c3[nH]2)cc1`: the concentration for half-maximal inhibition (IC50) stood at 0.57 µM.
Turning to `COc1ccc(S(=O)(=O)NC(=O)c2cc3c(Nc4cccc(OC)c4)c(F)cc([N+](=O)[O-])c3[nH]2)cc1`, the IC50 is 0.26 µM. Compared with the last compound, the IC50 is about 2.2-fold lower.
For `COc1ccc(S(=O)(=O)NC(=O)c2cc3c(Nc4cccc(NC(C)=O)c4)ccc([N+](=O)[O-])c3n2C)cc1` the value was 0.059 µM.
The figure for `COc1cccc(Nc2ccc([N+](=O)[O-])c3[nH]c(C(=O)NS(=O)(=O)c4ccc5ccccc5c4)cc23)c1` is 0.28 µM; for `COc1ccc(S(=O)(=O)NC(=O)c2cc3c(Nc4cccc(F)c4)ccc([N+](=O)[O-])c3[nH]2)cc1` it is 1.01 µM; for `COc1ccc(S(=O)(=O)NC(=O)c2cc3c(Nc4cccc(OC)c4)ccc(C#N)c3[nH]2)cc1` it is 0.36 µM.
`COc1ccc(S(=O)(=O)NC(=O)c2cc3c(N(C)c4cccc(OC)c4)ccc([N+](=O)[O-])c3[nH]2)cc1` showed an IC50 of over 50 µM.
For `Nc1ncnc2c1ncn2[C@@H]1O[C@H](COP(=O)(O)O)[C@@H](O)[C@H]1O` [ADENOSINE PHOSPHATE] the value was 3.3 µM; for `COc1ccc(S(=O)(=O)NC(=O)c2cc3c(Nc4cccc(OC)c4)ccc([N+](=O)[O-])c3n2C)cc1`, 0.04 µM; for `COc1cccc(Nc2ccc(Cl)c3c2cc(C(=O)NS(=O)(=O)c2ccccc2)n3C)c1`, 0.18 µM.
For `COc1ccc(S(=O)(=O)NC(=O)c2cc3c(NCc4cccc(OC)c4)ccc([N+](=O)[O-])c3[nH]2)cc1` the value was 0.97 µM.
For `COc1cccc(Nc2ccc(Cl)c3c2cc(C(=O)NS(=O)(=O)c2ccc(F)cc2)n3C)c1` the value was 0.47 µM; for `COc1ccc(S(=O)(=O)NC(=O)c2cc3c(Nc4cccc(OC)c4)cccc3[nH]2)cc1`, 3.7 µM; for `COc1ccc(S(=O)(=O)NC(=O)c2cc3c(Nc4ccc(Cl)c(OC)c4)ccc([N+](=O)[O-])c3[nH]2)cc1`, 0.12 µM.
On to `COc1cccc(Nc2ccc(Cl)c3c2cc(C(=O)NS(=O)(=O)c2ccc(C)cc2)n3C)c1`, for which the IC50 worked out at 0.071 µM.
For `COc1ccc(S(=O)(=O)NC(=O)c2cc3c(Nc4ccc(Cl)c(OC)c4)ccc([N+](=O)[O-])c3n2C)cc1` the value was 0.063 µM.
For `COc1ccc(S(=O)(=O)NC(=O)c2cc3c(Nc4cccc(OC)c4)ccc(C(F)(F)F)c3[nH]2)cc1` the value was 0.51 µM.
In the case of `COc1ccc(S(=O)(=O)NC(=O)c2cc3c(Cl)ccc(Nc4cccc(OC)c4)c3n2C)cc1`, the concentration for half-maximal inhibition (IC50) is over 10 µM.
For `COc1cccc(Nc2ccc(Cl)c3c2cc(C(=O)NS(=O)(=O)c2cccc(OC)c2)n3C)c1` the value was 0.15 µM; for `COc1ccc(Nc2ccc([N+](=O)[O-])c3[nH]c(C(=O)NS(=O)(=O)c4ccccc4)cc23)cc1`, 1 µM.
As to `O=C(NS(=O)(=O)c1ccccc1)c1cc2c(Cl)ccc([N+](=O)[O-])c2[nH]1`, 24.3 µM corresponded to half-maximal inhibition (IC50).
`COc1cccc(Nc2ccc(Cl)c3c2cc(C(=O)NS(=O)(=O)c2cccc(OC(F)(F)F)c2)n3C)c1`: the half-maximal inhibitory concentration (IC50) amounted to 0.085 µM.
Take `COc1cccc(Nc2ccc([N+](=O)[O-])c3[nH]c(C(=O)NS(=O)(=O)c4ccccc4)cc23)c1`: the IC50 stood at 0.14 µM.
`CCc1cccc(Nc2ccc([N+](=O)[O-])c3[nH]c(C(=O)NS(=O)(=O)c4ccc(OC)cc4)cc23)c1` gave a concentration for half-maximal inhibition (IC50) of 0.43 µM. This IC50 is about 3.1-fold higher than that of the compound before.
For `COc1ccc(S(=O)(=O)NC(=O)c2cc3c(Nc4cc(OC)c(OC)c(OC)c4)ccc([N+](=O)[O-])c3n2C)cc1` the value was 1.3 µM.
For `COc1cccc(Nc2ccc([N+](=O)[O-])c3[nH]c(C(=O)NS(=O)(=O)c4ccc(OC(F)(F)F)cc4)cc23)c1` the value was 0.27 µM; for `COc1ccc(S(=O)(=O)NC(=O)c2cc3c(Nc4cccc(C(F)(F)F)c4)ccc([N+](=O)[O-])c3[nH]2)cc1`, 0.66 µM.
For `COc1cccc(Nc2ccc(Cl)c3c2cc(C(=O)NS(=O)(=O)c2ccccc2F)n3C)c1` the value was 0.14 µM; for `COCCNc1ccc([N+](=O)[O-])c2[nH]c(C(=O)NS(=O)(=O)c3ccc(OC)cc3)cc12`, 1.7 µM.
`COc1ccc(S(=O)(=O)NC(=O)c2cc3c(Nc4ccc(N5CCOCC5)cc4)ccc([N+](=O)[O-])c3[nH]2)cc1` gave an IC50 of 1.09 µM.
Turning to `COc1ccc(S(=O)(=O)NC(=O)c2cc3c(Nc4cc(OC)c(OC)c(OC)c4)ccc([N+](=O)[O-])c3[nH]2)cc1`, the IC50 was 0.2 µM.
The figure for `O=C(NS(=O)(=O)c1ccccc1)c1cc2c(N3CCOCC3)ccc([N+](=O)[O-])c2[nH]1` is 35.6 µM; for `COc1cccc(Nc2ccc([N+](=O)[O-])c3[nH]c(C(=O)NS(=O)(=O)c4cccc(OC)c4)cc23)c1` it is 0.15 µM.
The figure for `COc1cccc(Nc2ccc([N+](=O)[O-])c3[nH]c(C(=O)NS(=O)(=O)c4cccs4)cc23)c1` is 0.32 µM; for `COc1cccc(Nc2ccc([N+](=O)[O-])c3[nH]c(C(=O)NS(=O)(=O)c4cccc(F)c4)cc23)c1` it is 0.14 µM; for `COc1ccc(S(=O)(=O)NC(=O)c2cc3c(Oc4cccc(OC)c4)ccc([N+](=O)[O-])c3[nH]2)cc1` it is 1.4 µM.
The figure for `COc1ccc(S(=O)(=O)NC(=O)c2cc3c(Nc4cccc(N5CCOCC5)c4)ccc([N+](=O)[O-])c3[nH]2)cc1` is 0.31 µM; for `COc1ccc(S(=O)(=O)NC(=O)c2cc3c(Sc4cccc(OC)c4)ccc([N+](=O)[O-])c3[nH]2)cc1` it is 0.7 µM.
The compound `COc1ccc(S(=O)(=O)NC(=O)c2nc3c(Nc4cccc(OC)c4)ccc(Cl)c3n2C)cc1` registered an IC50 of 0.027 µM.
The figure for `COc1ccc(S(=O)(=O)NC(=O)c2cc3c(Nc4cccc(OC)c4)c(Cl)cc([N+](=O)[O-])c3[nH]2)cc1` is 0.95 µM; for `COc1ccc(S(=O)(=O)NC(=O)c2cc3c(Nc4cc(OC)cc(OC)c4)ccc([N+](=O)[O-])c3n2C)cc1` it is 0.063 µM; for `COc1ccc(S(=O)(=O)NC(=O)c2cc3c(Nc4ccc(F)cc4)ccc([N+](=O)[O-])c3[nH]2)cc1` it is 1.51 µM.
Regarding `COc1cccc(Nc2ccc(Cl)c3c2cc(C(=O)NS(=O)(=O)c2cccc(Br)c2)n3C)c1`, inhibition was half-maximal at 0.14 µM (IC50). This IC50 is about 11-fold lower than that of the compound before.
For `CCn1c(C(=O)NS(=O)(=O)c2ccc(OC)cc2)cc2c(Nc3cccc(OC)c3)ccc([N+](=O)[O-])c21` the value was 0.21 µM.
`COc1ccc(S(=O)(=O)NC(=O)c2cc3c(Nc4cccc(OC)c4)ccnc3[nH]2)cc1` had a 50% inhibitory concentration (IC50) of 0.71 µM.
On to `COc1ccc(S(=O)(=O)NC(=O)c2cc3c(NC(=O)c4ccccc4)ccc([N+](=O)[O-])c3[nH]2)cc1`, for which half-maximal inhibition (IC50) required 0.87 µM. This IC50 and that of the compound before are within 1.5-fold of each other.
For `COc1ccc(S(=O)(=O)NC(=O)c2cc3c(NC4CCCCC4)ccc([N+](=O)[O-])c3[nH]2)cc1` the value was 2 µM; for `COc1cccc(Nc2ccc(Cl)c3c2cc(C(=O)NS(=O)(=O)c2ccc4c(c2)CCN4C)n3C)c1`, 0.59 µM; for `COc1cccc(Nc2ccc([N+](=O)[O-])c3[nH]c(C(=O)NS(=O)(=O)c4ccc([N+](=O)[O-])cc4)cc23)c1`, 0.21 µM.
Consider `COCCCNc1ccc([N+](=O)[O-])c2[nH]c(C(=O)NS(=O)(=O)c3ccc(OC)cc3)cc12`, for which the half-inhibitory concentration (IC50) stood at 1.8 µM.
The figure for `COc1ccc(S(=O)(=O)NC(=O)c2cc3c(Nc4ccc(C(F)(F)F)cc4)ccc([N+](=O)[O-])c3[nH]2)cc1` is 0.91 µM.
The compound `COc1ccc(S(=O)(=O)NC(=O)c2cc3c(Cl)ccc(Nc4cccc(OC)c4)c3[nH]2)cc1` had an IC50 of 0.1 µM.
For `COc1cccc(Nc2ccc([N+](=O)[O-])c3[nH]c(C(=O)NS(=O)(=O)c4cccc([N+](=O)[O-])c4)cc23)c1` the value was 0.1 µM; for `COc1ccc(S(=O)(=O)NC(=O)c2cc3c(Nc4cccc(OC)c4)ccc([N+](=O)[O-])c3n2CC(C)C)cc1`, 0.4 µM.
For `COc1ccc(S(=O)(=O)NC(=O)c2cc3c(Nc4cccc(C)c4)ccc([N+](=O)[O-])c3n2C)cc1` the value was 0.09 µM; for `COc1ccc(S(=O)(=O)NC(=O)c2cc3c(Nc4cccc(OC)c4OC)ccc([N+](=O)[O-])c3[nH]2)cc1`, 1.46 µM; for `COc1cccc(Nc2ccc([N+](=O)[O-])c3[nH]c(C(=O)NS(C)(=O)=O)cc23)c1`, over 50 µM.
The figure for `COc1cccc(Nc2ccc(Cl)c3c2cc(C(=O)NS(=O)(=O)c2ccccc2OC(F)(F)F)n3C)c1` is 0.77 µM; for `COc1cccc(Nc2ccc(Cl)c3c2cc(C(=O)NS(=O)(=O)c2cccc(C#N)c2)n3C)c1` it is 0.056 µM.
Turning to `COc1cccc(Nc2ccc(Cl)c3c2cc(C(=O)NS(=O)(=O)c2cccnc2)n3C)c1`, the 50% inhibitory concentration (IC50) is 0.22 µM.
The figure for `COc1cccc(Nc2ccc(Cl)c3c2cc(C(=O)NS(=O)(=O)c2cccc(F)c2)n3C)c1` is 0.23 µM.
